Common to all, as to format: biochemical
For assay [1], the target named is T1, DYRK2 (Homo sapiens, UniProt Q92630).
T1 construct: purchased Carna Biosciences, Inc. 04-132
T1 sequence (Q92630 1-601): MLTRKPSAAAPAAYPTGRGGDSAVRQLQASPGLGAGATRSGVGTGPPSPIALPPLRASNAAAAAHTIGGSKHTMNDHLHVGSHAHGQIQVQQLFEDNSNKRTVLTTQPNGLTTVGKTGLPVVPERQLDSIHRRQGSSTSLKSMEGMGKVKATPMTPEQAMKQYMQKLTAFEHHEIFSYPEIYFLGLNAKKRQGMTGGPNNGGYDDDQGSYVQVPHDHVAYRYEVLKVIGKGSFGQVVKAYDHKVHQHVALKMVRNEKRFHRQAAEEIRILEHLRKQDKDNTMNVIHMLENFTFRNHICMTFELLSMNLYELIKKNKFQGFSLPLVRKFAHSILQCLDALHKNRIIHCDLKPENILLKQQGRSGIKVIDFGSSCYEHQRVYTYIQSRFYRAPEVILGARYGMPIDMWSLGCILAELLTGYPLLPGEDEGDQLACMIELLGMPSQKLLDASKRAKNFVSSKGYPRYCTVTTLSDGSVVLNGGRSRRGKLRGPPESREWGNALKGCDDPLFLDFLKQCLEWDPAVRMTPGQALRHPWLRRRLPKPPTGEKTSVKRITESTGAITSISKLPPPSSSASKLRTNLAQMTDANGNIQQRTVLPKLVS
Nature of the assay: Inhibition test on activity of DYRK family, mobility shift assay (MSA), DYRK2. The note with it: ATP 40 μM, FITC-labeled DYRKtide peptide substrate, room temperature 1 hour; read-out: Inhibitory Activity 2 (IC50 against DYRK2). The procedure, abridged:
(§1)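 FITC-DYRKtide phosphorylation in 20 mM HEPES pH 7.5 with MgCl2; ATP in the substrate mix was 100 μM (DYRK1A), 200 μM (DYRK1B), 40 μM (DYRK2) or 20 μM (DYRK3). Reactions ran 1 h at room temperature; inhibition from P/(P+S) versus blank and DMSO control, IC50 by regression on log concentration.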

Assay [2] has as its target T2, DYRK1A (Homo sapiens, UniProt Q13627).
T2 construct: purchased Carna Biosciences, Inc. 04-130
Nature of the assay: Inhibition test on activity of DYRK family, mobility shift assay (MSA), DYRK1A. The following applies: ATP 100 μM, FITC-labeled DYRKtide peptide substrate, room temperature 1 hour; for IC50: read-out: Inhibitory Activity 1a (IC50 against DYRK1A). In short, it runs like this:
as §1

Assay [3] has as its target T3, DYRK3 (Homo sapiens, UniProt O43781).
T3 construct: purchased Carna Biosciences, Inc. 04-133
T3 sequence (O43781 1-588): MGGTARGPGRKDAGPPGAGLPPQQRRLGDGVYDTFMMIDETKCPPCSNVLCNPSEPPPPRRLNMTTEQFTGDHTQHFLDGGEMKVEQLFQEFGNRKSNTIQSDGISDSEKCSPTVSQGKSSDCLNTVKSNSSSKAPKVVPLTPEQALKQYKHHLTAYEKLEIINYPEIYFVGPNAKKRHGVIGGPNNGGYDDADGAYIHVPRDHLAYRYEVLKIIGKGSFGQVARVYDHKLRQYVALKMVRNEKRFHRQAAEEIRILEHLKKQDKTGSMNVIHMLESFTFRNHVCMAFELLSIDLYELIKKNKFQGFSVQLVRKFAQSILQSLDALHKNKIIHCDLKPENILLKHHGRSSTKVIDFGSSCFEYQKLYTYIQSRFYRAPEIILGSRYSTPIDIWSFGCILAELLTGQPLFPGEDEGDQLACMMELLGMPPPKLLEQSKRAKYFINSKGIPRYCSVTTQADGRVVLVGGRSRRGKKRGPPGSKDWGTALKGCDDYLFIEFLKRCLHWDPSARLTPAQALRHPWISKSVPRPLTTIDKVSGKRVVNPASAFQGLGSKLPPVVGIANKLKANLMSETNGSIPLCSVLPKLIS
Nature of the assay: Inhibition test on activity of DYRK family, mobility shift assay (MSA), DYRK3. The note with it: ATP 20 μM, FITC-labeled DYRKtide peptide substrate, room temperature 1 hour; for IC50: read-out: Inhibitory Activity 3 (IC50 against DYRK3). In short, it runs like this: as §1

Here are results for 11 molecules from patent US20230138851A1, “NOVEL ALKYNE DERIVATIVES” (CARNA BIOSCIENCES, INC., priority 2020, published 2023).

On to `CC#C[C@@H]1[C@H](COC)NC(=O)N1c1nc2c3c(ccc2s1)OCC3` (single isomer, unassigned) [Example 74, cis-1-(7,8-dihydrobenzofuro[4,5-d]thiazol-2-yl)-4-(methoxymethyl)-5-(prop-1-yn-1-yl)imidazolidin-2-one], for which the IC50 in assay [1] and in assay [3] was 100 to 1000 nM throughout. Moreover, the “Inhibitory Activity 1a (IC50 against DYRK1A)” value (shortened to “Inhibitory Activity 1a”) in assay [2] is recorded as “* * *”.

Take `CC#CC1CNC(=O)N1c1nc2c3c(ccc2s1)OCCN3CCO` (racemic) [Example 41, (RS)-1-[9-(2-hydroxyethyl)-8,9-dihydro-7H-thiazolo[4′,5′:3,4]benz[1,2-b][1,4]oxazin-2-yl]-5-(prop-1-yn-1-yl)imidazolidin-2-one]: the IC50 in assay [1] and in assay [3] was 100 to 1000 nM throughout. In assay [2], the “Inhibitory Activity 1a” value is “* * *”.

Consider `CC#CC1CNC(=O)N1c1nc2c(ccc3ncn(CC(C)(C)O)c32)s1` (racemic) [Example 37, (RS)-1-[8-(2-hydroxy-2-methylpropyl)-8H-imidazo[4′,5′;5,6]benz[1,2-d]thiazol-2-yl]-5-(prop-1-yn-1-yl)imidazolidin-2-one], for which the IC50 in assay [1] fell in the range of 100 to 1000 nM. The “Inhibitory Activity 1a” value in assay [2] is listed as “* *”. In assay [3], the “Inhibitory Activity 3 (IC50 against DYRK3)” value is “* *”.

With `CC#CC1CNC(=O)N1c1nc2c3c(ccc2s1)OCC(C)N3C` (racemic) [Example 40, (RS)-1-((RS)-8,9-dimethyl-8,9-dihydro-7H-thiazolo[4′,5′:3,4]benz[1,2-b][1,4]oxazin-2-yl)-5-(prop-1-yn-1-yl)imidazolidin-2-one], the IC50 in assay [1] and in assay [3] was 100 to 1000 nM each time. For the same molecule, the “Inhibitory Activity 1a” value in assay [2] is on record as “* * *”.

In the case of `CC#C[C@@H]1[C@H](CO)NC(=O)N1c1nc2c3c(ccc2s1)OCC3` (relative stereo) [Example 60, cis-1-(7,8-dihydrobenzofuro[4,5-d]thiazol-2-yl)-4-(hydroxymethyl)-5-(prop-1-yn-1-yl)imidazolidin-2-one], in assay [1], the IC50 lay within 100 to 1000 nM. For the same molecule, the “Inhibitory Activity 1a” value in assay [2] is reported as “* * *”. Further, the “Inhibitory Activity 3 (IC50 against DYRK3)” value in assay [3] is “* *”.

Turning to `CC#C[C@@H]1[C@H](COC)NC(=O)N1c1nc2c3c(ccc2s1)OCC3` (single isomer, unassigned) [Example 75, cis-1-(7,8-dihydrobenzofuro[4,5-d]thiazol-2-yl)-4-(methoxymethyl)-5-(prop-1-yn-1-yl)imidazolidin-2-one], the IC50 in assay [1] is at least 1000 nM; in assay [2] it was 100 to 1000 nM; in assay [3], at least 1000 nM.

For the molecule `CC#C[C@H]1[C@H](COC)NC(=O)N1c1nc2c3c(ccc2s1)OCC3` (single isomer, unassigned) [Example 76, trans-1-(7,8-dihydrobenzofuro[4,5-d]thiazol-2-yl)-4-(methoxymethyl)-5-(prop-1-yn-1-yl)imidazolidin-2-one], the IC50 in assay [1] and in assay [3] was at least 1000 nM throughout. Further, the “Inhibitory Activity 1a” value in assay [2] is on record as “* *”.

With `CC#C[C@H]1[C@H](CC)NC(=O)N1c1nc2c3c(ccc2s1)OCC3` (single isomer, unassigned) [Example 71, trans-1-(7,8-dihydrobenzofuro[4,5-d]thiazol-2-yl)-4-ethyl-5-(prop-1-yn-1-yl)imidazolidin-2-one], the IC50 is at least 1000 nM in assay [1] and 100 to 1000 nM in assay [3]. Moreover, the “Inhibitory Activity 1a” value in assay [2] is reported as “* * *”.

As for `CC#C[C@H]1[C@H](CN(C)C)NC(=O)N1c1nc2c3c(ccc2s1)OCC3` (single isomer, unassigned) [Example 69, trans-1-(7,8-dihydrobenzofuro[4,5-d]thiazol-2-yl)-4-[(dimethylamino)methyl]-5-(prop-1-yn-1-yl)imidazolidin-2-one], the IC50 in assay [1] was at least 1000 nM; in assay [3], 100 to 1000 nM. The “Inhibitory Activity 1a” value in assay [2] was “* *”.

`CC#C[C@@H]1[C@H](CF)NC(=O)N1c1nc2c3c(ccc2s1)OCC3` (relative stereo) [Example 80, cis-1-(7,8-dihydrobenzofuro[4,5-d]thiazol-2-yl)-4-(fluoromethyl)-5-(prop-1-yn-1-yl)imidazolidin-2-one]: the IC50 in assay [1] is at least 1000 nM; in assay [2], below 10 nM; in assay [3], 100 to 1000 nM.

Consider `CC#C[C@H]1[C@H](CO)NC(=O)N1c1nc2c3c(ccc2s1)OCCO3` (single isomer, unassigned) [Example 65, trans-1-(7,8-dihydro-[1,4]dioxino[2′,3′:5,6]benz[1,2-d]thiazol-2-yl)-4-(hydroxymethyl)-5-(prop-1-yn-1-yl)imidazolidin-2-one], for which the IC50 in assay [1] and in assay [3] was 100 to 1000 nM in each case. The “Inhibitory Activity 1a” value in assay [2] is on record as “* * *”.

By IC50 is commonly meant the concentration that gives 50% inhibition.
